From patent US20140228287A1, “1-[(3-CYANO-PYRIDIN-2-YL)METHYL]-3-METHYL-7-(2-BUTYN-1-YL)-8-[3-(R)-AMINO-PIPERIDIN-1-YL]-AXANTHINE FOR THE TREATMENT OF A METABOLIC DISORDER OF A PREDOMINANTLY CARNIVOROUS NON-HUMAN ANIMAL” (BOEHRINGER INGELHEIM VETMEDICA GMBH, priority 2010, published 2014)
Counter-ions that a name gives are not always drawn.

Legend:
M1 muscarinic receptors = M1 muscarinic receptors (Homo sapiens, UniProt P11229); experiment: Selectivity panel, radio ligand binding assay: M1; conditions: only interaction observed in full panel of receptors, ion channels and enzymes
Experimental: In selectivity assays as described in Dörje et al. (1991), J. Pharmacol. Exp. Ther., vol. 256, p. 727-733, chapter Radio ligand binding studies, p. 729, using the full panel of receptors, ion channels and enzymes, the only interaction observed with 1-[(3-cyano-pyridin-2-yl)methyl]-3-methyl-7-(2-butyn-1-yl)-8-[3-(R)-amino-piperidin-1-yl]-xanthine monohydrochloride was with M1 muscarinic receptors, with IC50 in a binding assay of 3 μM.

plasma DPP IV [1] = experiment: Plasma DPP IV activity after oral administration, Beagle dog; format: in vivo; conditions: 3 mg/kg oral, 24 hours post dose
Experimental: (§1) The effect of 1-[(3-cyano-pyridin-2-yl)methyl]-3-methyl-7-(2-butyn-1-yl)-8-[3-(R)-amino-piperidin-1-yl]-xanthine on plasma DPP IV activity after oral administration was investigated in the rat, the Beagle dog and the Rhesus monkey. These investigations were conducted as described in the following.
Overnight fasted male Beagle dogs (n=4 per group) were administered oral doses of 1-[(3-cyano-pyridin-2-yl)methyl]-3-methyl-7-(2-butyn-1-yl)-8-[3-(R)-amino-piperidin-1-yl]-xanthine monohydrochloride at 3 and 12 mg/kg body weight. Blood samples were drawn from a butterfly inserted in either the right or left forearm vein. Blood was collected in EDTA tubes prior to administration of 1-[(3-cyano-pyridin-2-yl)methyl]-3-methyl-7-(2-butyn-1-yl)-8-[3-(R)-amino-piperidin-1-yl]-xanthine monohydrochloride and subsequently at 1, 2, 4, 8, and 24 hour time points post dose. Plasma was prepared following blood collection and frozen for determination of DPP-IV activity.

plasma DPP IV [2] = experiment: Plasma DPP IV activity after oral administration, Rhesus monkey; format: in vivo; conditions: 1 mg/kg oral, 24 hours post dose
Experimental: as §1
Overnight fasted Rhesus monkeys (n=4; 2 males and 2 females) were administered oral doses of 1-[(3-cyano-pyridin-2-yl)methyl]-3-methyl-7-(2-butyn-1-yl)-8-[3-(R)-amino-piperidin-1-yl]-xanthine monohydrochloride at 1 mg/kg bw. Blood samples were drawn from a butterfly that was inserted into a forearm vein of restrained monkeys. Blood was collected in EDTA tubes prior to administration of 1-[(3-cyano-pyridin-2-yl)methyl]-3-methyl-7-(2-butyn-1-yl)-8-[3-(R)-amino-piperidin-1-yl]-xanthine monohydrochloride and subsequently at 0.5, 1, 2, 4, 8, 24, 48, and 72 hour time points post dose. Plasma was prepared following blood collection and frozen for determination of DPP-IV activity.

diabetic db/db mice = experiment: Delayed OGTT in diabetic db/db mice; format: in vivo, mouse; conditions: 1 mg/kg 16 hours before the test
Experimental: A delayed oral glucose tolerance test (OGTT) was applied to diabetic db/db mice and diabetic ZDF rats, as describes in the following.
Male obese diabetic db/db mice (C57BL/KSJ@Rj-db) were obtained from Janvier (France). Animals were fed ad libitum with a standard pelleted diet (Diet No. 3438 [containing 19% protein, 4.5% fat], Provimi Kliba, Switzerland) and had free access to water. Animals were housed in groups with a 12 h/12 h light/dark cycle (lights out between 6 p.m. and 6 a.m.). The mice used for these experiments were between 9 and 10 weeks of age.
The day before the OGTT, a blood sample from db/db mice or ZDF rats fasted for 2 hours was obtained by cutting the tip of the tail without anaesthesia and the animals were randomized for glucose (n=7 per group). The animals were fed again for 2 hours and then orally administered with either vehicle or 1-[(3-cyano-pyridin-2-yl)methyl]-3-methyl-7-(2-butyn-1-yl)-8-[3-(R)-amino-piperidin-1-yl]-xanthine monohydrochloride at doses between 0.3 and 3 mg/kg bw. A basal blood sample (pre-load) was obtained the next morning after overnight fasting for 16 hours by cutting the tip of the tail without anaesthesia. […] Additional blood samples were taken from the tip of the tail 30 min, 60 min, 90 min, 120 min, and 180 min after the glucose load, and blood glucose was measured. […]

Chain of M1 muscarinic receptors (P11229 whole entry): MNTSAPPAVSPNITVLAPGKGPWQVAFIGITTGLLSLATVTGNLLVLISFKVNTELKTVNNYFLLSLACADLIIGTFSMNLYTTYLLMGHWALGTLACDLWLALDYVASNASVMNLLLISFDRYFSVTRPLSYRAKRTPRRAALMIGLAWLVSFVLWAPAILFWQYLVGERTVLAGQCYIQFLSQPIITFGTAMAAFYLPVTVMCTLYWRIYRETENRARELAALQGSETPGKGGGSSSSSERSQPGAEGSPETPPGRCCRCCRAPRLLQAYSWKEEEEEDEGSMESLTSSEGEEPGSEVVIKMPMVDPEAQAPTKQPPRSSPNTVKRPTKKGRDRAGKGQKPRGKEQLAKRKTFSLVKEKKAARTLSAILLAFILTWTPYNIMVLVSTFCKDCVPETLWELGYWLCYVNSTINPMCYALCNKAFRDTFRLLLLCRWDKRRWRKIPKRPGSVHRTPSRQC

## CC#CCn1c(N2CCC[C@@H](N)C2)nc2c1c(=O)n(Cc1ncccc1C#N)c(=O)n2C [1-[(3-cyano-pyridin-2-yl)methyl]-3-methyl-7-(2-butyn-1-yl)-8-[3-(R)-amino-piperidin-1-yl]-xanthine monohydrochloride]
M1 muscarinic receptors
  IC50: 3 µM
Plasma DPP IV [1]
  inhibition of plasma DPP IV activity: 76%
Plasma DPP IV [2]
  inhibition of plasma DPP IV activity: 54%
Diabetic db/db mice
  reduction of glucose AUC in OGTT: 39%
